# Assay results: patent US10517889B2, “Modulators of SMAD7 expression” (Ionis Pharmaceuticals, Inc., priority 2017, dated 2019)
# Strand notation (5' to 3'): a small letter for the sugar, then the base; units joined by * are phosphorothioate-linked, units joined directly phosphodiester-linked; [ ] holds rarer units or linkages, { } end groups; capitals alone tell only the bases. k = constrained ethyl (cEt); [5mC] = 5-methylcytosine; d = 2'-deoxy (DNA)
# System: human SMAD7 mRNA
# Experiment: Antisense inhibition of human SMAD7 mRNA expression in Hep3B cells by 3-10-3 cEt gapmers, 10,000 nM, electroporation (Example 2)
# Format: cell-based
# Conditions: approximately 24 hours
# Procedure: Antisense oligonucleotides were designed to target human SMAD7 mRNA and were tested for their effects on SMAD7 mRNA expression in vitro. The antisense oligonucleotides were tested in a series of experiments that had similar culture conditions, as described below. ION 771576, described in the studies above and which is a 5-10-5 MOE gapmer, was also included in these assays. Cultured Hep3B cells at a density of 20,000 cells per well were transfected using electroporation with 10,000 nM antisense oligonucleotide. After a treatment period of approximately 24 hours, RNA was isolated from the cells and SMAD7 mRNA levels were measured by quantitative real-time PCR. Primer probe set RTS5062 was used to measure human SMAD7 mRNA levels. SMAD7 mRNA levels were adjusted according to total RNA content, as measured by RIBOGREEN®. Results are presented as percent inhibition of SMAD7 mRNA expression, relative to untreated control cells.
# The newly designed chimeric antisense oligonucleotides in the Tables below were designed as 3-10-3 cEt gapmers. The gapmers are 16 nucleosides in length, wherein the central gap segment comprises often 2′-deoxynucleosides and is flanked by wing segments on the 5′ direction and the 3′ direction comprising three nucleosides each. Each nucleoside in the 5′ wing segment and each nucleoside in the 3′ wing segment has a cEt sugar modification. The internucleoside linkages throughout each gapmer are phosphorothioate (P═S) linkages. All cytosine residues throughout each gapmer are 5-methylcytosines.
# “Start site” indicates the 5′-most nucleoside to which the gapmer is targeted in the human gene sequence. “Stop site” indicates the 3′-most nucleoside to which the gapmer is targeted human gene sequence. […] Some of the oligonucleotides presented were complementary to SMAD7 mRNA sequences RefSeqNo. NM_001190821.1 (designated herein as SEQ ID NO: 3) or RefSeqNo. NM_001190822.1 (designated herein as SEQ ID NO: 4), and are presented in a separate table shown below.
# [1] = Hep3B cells, electroporation with 10,000 nM antisense oligonucleotide, primer probe set RTS5062, relative to untreated control cells
# [2] = Hep3B cells, electroporation with 10,000 nM antisense oligonucleotide, SMAD7 mRNA by RT-PCR (RTS5062), relative to untreated control cells
# [3] = Hep3B cells, electroporation, 10,000 nM antisense oligonucleotide, RTS5062, relative to untreated control cells
# [4] = SMAD7 mRNA, Hep3B cells, electroporation with 10,000 nM antisense oligonucleotide, primer probe set RTS5062, relative to untreated control cells
# [5] = Hep3B cells, electroporation with 10,000 nM antisense oligonucleotide, RTS5062, percent inhibition of SMAD7 mRNA relative to untreated control cells
# [6] = SMAD7 mRNA, Hep3B cells, 10,000 nM antisense oligonucleotide, electroporation, primer probe set RTS5062, relative to untreated control cells
substance,measurement,setting,value
798712 (antisense kG*k[5mC]*k[5mC]*dA*d[5mC]*d[5mC]*dG*dG*d[5mC]*d[5mC]*d[5mC]*d[5mC]*dA*kT*kG*k[5mC]) [compound 798712],% inhibition of SMAD7 mRNA expression,[1],6%
790543 (kT*kG*kA*dA*dA*dA*dG*d[5mC]*dA*dA*dG*d[5mC]*dA*k[5mC]*kT*k[5mC]; antisense) [compound 790543],% Inhibition,[1],23%
799861 (kA*k[5mC]*k[5mC]*dG*d[5mC]*dA*dT*dG*d[5mC]*dG*dA*dT*d[5mC]*kG*kG*kT; antisense) [compound 799861],% Inhibition,[2],15%
799346 (kT*k[5mC]*kT*d[5mC]*dA*dG*d[5mC]*d[5mC]*dG*dA*dG*dA*dA*kG*k[5mC]*k[5mC]; antisense) [compound 799346],% inhibition of SMAD7 mRNA expression,[1],26%
799867 (k[5mC]*kT*k[5mC]*d[5mC]*dA*dA*dT*d[5mC]*dT*dG*dG*d[5mC]*dT*kG*kG*kT; antisense) [compound 799867],% Inhibition,[2],24%
790710 (kG*kG*kG*dA*dA*dA*dT*dG*dT*dT*d[5mC]*dT*dA*k[5mC]*k[5mC]*kT; antisense) [compound 790710],% inhibition of SMAD7 mRNA expression,[3],15%
798999 (antisense k[5mC]*k[5mC]*kG*d[5mC]*dA*d[5mC]*dA*d[5mC]*dT*d[5mC]*dA*d[5mC]*dA*k[5mC]*kT*k[5mC]) [compound 798999],% Inhibition,[1],17%
798992 (antisense kA*k[5mC]*kT*d[5mC]*d[5mC]*dT*dG*dA*d[5mC]*dA*dA*dG*dT*kG*kA*kA) [compound 798992],% inhibition of SMAD7 mRNA expression,[1],29%
798757 (kG*k[5mC]*kG*d[5mC]*dA*dG*dG*d[5mC]*dT*dG*d[5mC]*dG*d[5mC]*kG*k[5mC]*k[5mC]; antisense) [compound 798757],% Inhibition,[2],0%
829914 (antisense kA*k[5mC]*k[5mC]*dT*dT*dG*dG*dG*dT*dT*dA*dT*dG*kA*k[5mC]*kG) [compound 829914],% Inhibition,[4],35%
799729 (antisense kT*kA*kT*d[5mC]*dT*dT*d[5mC]*d[5mC]*d[5mC]*dG*d[5mC]*dT*dG*kA*kA*kA) [compound 799729],% Inhibition,[5],52%
829869 (antisense k[5mC]*kA*kG*dT*dG*dT*dG*dG*d[5mC]*dG*dG*dA*d[5mC]*kT*kT*kG) [compound 829869],% Inhibition,[4],37%
799293 (antisense k[5mC]*k[5mC]*kT*dT*dG*dA*dT*dG*d[5mC]*dT*dG*dA*dT*kT*kA*kT) [compound 799293],% Inhibition,[5],5%
829894 (antisense kG*k[5mC]*kT*dG*dA*dT*d[5mC]*dT*dG*d[5mC]*dA*d[5mC]*dG*kG*kT*kA) [compound 829894],% Inhibition,[4],41%
829807 (kA*kG*kA*d[5mC]*dT*d[5mC]*dT*dA*dG*dT*dT*d[5mC]*dG*k[5mC]*kA*kG; antisense) [compound 829807],% Inhibition,[4],41%
799926 (antisense k[5mC]*k[5mC]*k[5mC]*dA*dA*dG*d[5mC]*d[5mC]*dT*dA*d[5mC]*dA*dT*kA*kT*kT) [compound 799926],% Inhibition,[2],17%
798933 (antisense kG*k[5mC]*kA*d[5mC]*dT*d[5mC]*dA*dG*dG*dA*dG*dG*dA*kA*kA*kA) [compound 798933],% inhibition of SMAD7 mRNA expression,[1],52%
830026 (antisense kT*kT*kT*dT*dG*dT*dA*dA*dA*dT*d[5mC]*dG*dA*kA*kA*kG) [compound 830026],% Inhibition,[2],0%
790484 (kG*kA*kA*d[5mC]*dA*d[5mC]*dT*dT*dT*dG*d[5mC]*dA*d[5mC]*kA*kG*k[5mC]; antisense) [compound 790484],% Inhibition,[6],62%
772604 (kA*kT*kT*d[5mC]*d[5mC]*d[5mC]*d[5mC]*dT*dG*dA*dG*dG*dT*kA*kG*kA; antisense) [compound 772604],% Inhibition,[6],48%
799714 (antisense k[5mC]*kA*k[5mC]*d[5mC]*dA*dA*dA*dA*d[5mC]*dA*dA*dG*dT*kG*kT*k[5mC]) [compound 799714],% inhibition of SMAD7 mRNA expression,[3],33%
799302 (antisense kA*kA*kA*d[5mC]*d[5mC]*dA*d[5mC]*dA*d[5mC]*dA*dT*dT*d[5mC]*k[5mC]*kA*kA) [compound 799302],% inhibition of SMAD7 mRNA expression,[3],39%
829786 (antisense kG*kA*kA*dT*dG*d[5mC]*d[5mC]*dT*dG*dA*dG*dA*dT*k[5mC]*k[5mC]*kG) [compound 829786],% Inhibition,[6],56%
799004 (antisense kG*k[5mC]*kA*d[5mC]*dA*d[5mC]*dA*d[5mC]*dA*dG*d[5mC]*d[5mC]*dG*k[5mC]*kA*k[5mC]) [compound 799004],% inhibition of SMAD7 mRNA expression,[1],0%
772739 (kT*kA*k[5mC]*dT*d[5mC]*dA*d[5mC]*d[5mC]*dA*dG*dT*dT*dG*kG*kT*kT; antisense) [compound 772739],% Inhibition,[6],0%
799073 (antisense k[5mC]*kG*k[5mC]*dT*dA*d[5mC]*dA*dA*dT*dG*dG*d[5mC]*dA*kG*kG*kG) [compound 799073],% Inhibition,[1],34%
799472 (antisense kA*kG*k[5mC]*d[5mC]*dA*dT*dA*d[5mC]*d[5mC]*dT*d[5mC]*d[5mC]*dA*kT*k[5mC]*kT) [compound 799472],% Inhibition,[2],31%
790529 (kA*kG*k[5mC]*dT*dG*dA*dT*d[5mC]*dT*dG*d[5mC]*dA*d[5mC]*kG*kG*kT; antisense) [compound 790529],% Inhibition,[6],65%
799132 (antisense kA*kA*kG*d[5mC]*dA*dT*dG*dT*d[5mC]*d[5mC]*d[5mC]*dT*d[5mC]*k[5mC]*k[5mC]*kA) [compound 799132],% inhibition of SMAD7 mRNA expression,[1],38%
799943 (antisense kT*kG*k[5mC]*d[5mC]*d[5mC]*dT*d[5mC]*dT*d[5mC]*dA*dG*dG*dG*kT*k[5mC]*kT) [compound 799943],% Inhibition,[2],0%
799361 (kG*kT*k[5mC]*d[5mC]*dT*dA*dT*dT*dT*dG*dG*dT*dT*k[5mC]*k[5mC]*k[5mC]; antisense) [compound 799361],% inhibition of SMAD7 mRNA expression,[1],77%
799707 (antisense kA*kA*kA*d[5mC]*dT*dT*dG*dT*dG*dG*dT*dA*dA*kA*kA*kT) [compound 799707],% Inhibition,[5],38%
829924 (k[5mC]*kT*k[5mC]*dA*dT*dT*dG*dA*dG*d[5mC]*dT*dA*dA*kG*kA*kA; antisense) [compound 829924],% Inhibition,[4],25%
798702 (antisense k[5mC]*k[5mC]*k[5mC]*d[5mC]*dT*dT*d[5mC]*dT*d[5mC]*d[5mC]*d[5mC]*d[5mC]*dG*k[5mC]*kA*kG) [compound 798702],% Inhibition,[2],45%
798713 (antisense kG*k[5mC]*k[5mC]*dG*d[5mC]*d[5mC]*dA*d[5mC]*d[5mC]*dG*dG*d[5mC]*d[5mC]*k[5mC]*k[5mC]*kA) [compound 798713],% Inhibition,[2],45%
798809 (kT*kT*kG*dG*dG*dA*dA*dT*d[5mC]*dT*dG*dA*dA*kA*kG*k[5mC]; antisense) [compound 798809],% inhibition of SMAD7 mRNA expression,[1],2%
